Where “and” joins values, the source holds several entries; their conditions need not be identical. Equal entries are not always repeated.
Columns and labels:
GluN2B subunits = settings: cited from earlier work
GluN2B = system: GluN2B; parameters: method as in PMID 35710735; settings: PET, non-human primates; cited from earlier work
GluN1a wt/ GluN2B F114A = GluN1a wt/ GluN2B F114A (Rattus norvegicus, UniProt P35439+Q00960, F114A); assay: TEVC recording in X. laevis oocytes, GluN2B mutant screening; format: cell-based; settings: GluN1-1a/F114A, individual oocytes
GluN1a wt/ GluN2B E236A = GluN1a wt/ GluN2B E236A (Rattus norvegicus, UniProt P35439+Q00960, E236A); assay: as above; format: cell-based; settings: GluN1-1a/E236A, individual oocytes
GluN1a wt/ GluN2B F176A = GluN1a wt/ GluN2B F176A (Rattus norvegicus, UniProt P35439+Q00960, F176A); assay: Ligand binding assay with [3H]ifenprodil, membranes of transfected HEK cells; settings: 5 nM radioligand, non-specific binding with 10 µM unlabeled ifenprodil, 37 °C; single replicate
Description: (§1) One day prior to transfection, human embryonic kidney (HEK) cells were reseeded into T75 flasks, aiming for a confluency of 70% after 24 h. HEK cells were then transiently co-transfected with the cDNAs (GluN1-1a/ eGFP, GluN1-1b/eGFP, GluN2B/pDsRed2-N1, GluN2B F176A/pDsRed2-N1, and GluN2B F194A/pDsRed2-N1) encoding the NMDAR subunits using Lipofectamine 3000 (Thermo Fisher Scientific, Germany) according to the manufacturer’s instructions. Approximately 60 h after transfection, the cells were resuspended in Dulbecco’s phosphate-buffered saline (PBS), and the positively double transfected cells were sorted using fluorescence-activated cell sorting (FACS). The membrane preparation, the protein yield determination, and ligand binding assay were performed as previously described. Briefly, the affinity for NMDAR was evaluated using a receptor binding assay, in which racemic […] (60 Ci/mmol; BIOTREND, Cologne, Germany), served as radioligand. The membrane fragments of NMDAR expressing HEK cells were incubated with 5 nM [^3H]ifenprodil and TRIS/EDTA-buffer (5 mM TRIS/1 mM EDTA, pH 7.5) at 37 °C. To evaluate the unspecific binding, 10 µM unlabeled ifenprodil was used.

GluN1a wt/ GluN2B F194A = GluN1a wt/ GluN2B F194A (Rattus norvegicus, UniProt P35439+Q00960, F194A); assay: as above; settings: 5 nM radioligand, non-specific binding with 10 µM unlabeled ifenprodil, 37 °C; single replicate
Description: as §1

GluN1a wt/ GluN2B wt = GluN1a wt/ GluN2B wt (Rattus norvegicus, UniProt P35439+Q00960); assay: as above; settings: 5 nM radioligand, non-specific binding with 10 µM unlabeled ifenprodil, 37 °C; single replicate
Description: as §1

GluN1b wt/ GluN2B F176A = GluN1b wt/ GluN2B F176A (Rattus norvegicus, UniProt P35439+Q00960, F176A); assay: as above; settings: 5 nM radioligand, non-specific binding with 10 µM unlabeled ifenprodil, 37 °C; single replicate
Description: as §1

GluN1b wt/ GluN2B F194A = GluN1b wt/ GluN2B F194A (Rattus norvegicus, UniProt P35439+Q00960, F194A); assay: as above; settings: 5 nM radioligand, non-specific binding with 10 µM unlabeled ifenprodil, 37 °C; single replicate
Description: as §1

GluN1b wt/ GluN2B wt = GluN1b wt/ GluN2B wt (Rattus norvegicus, UniProt P35439+Q00960); assay: as above; settings: 5 nM radioligand, non-specific binding with 10 µM unlabeled ifenprodil, 37 °C; single replicate
Description: as §1

[1] = compound concentration 0.1 μM, 0.1 µM
[2] = compound concentration 1 μM, 1 µM
[3] = compound concentration 10 μM, 10 µM
[4] = compound concentration 30 μM, 30 µM

Sequence of GluN1a wt/ GluN2B F194A (Q00960 27-1482 F194A, other chains not shown): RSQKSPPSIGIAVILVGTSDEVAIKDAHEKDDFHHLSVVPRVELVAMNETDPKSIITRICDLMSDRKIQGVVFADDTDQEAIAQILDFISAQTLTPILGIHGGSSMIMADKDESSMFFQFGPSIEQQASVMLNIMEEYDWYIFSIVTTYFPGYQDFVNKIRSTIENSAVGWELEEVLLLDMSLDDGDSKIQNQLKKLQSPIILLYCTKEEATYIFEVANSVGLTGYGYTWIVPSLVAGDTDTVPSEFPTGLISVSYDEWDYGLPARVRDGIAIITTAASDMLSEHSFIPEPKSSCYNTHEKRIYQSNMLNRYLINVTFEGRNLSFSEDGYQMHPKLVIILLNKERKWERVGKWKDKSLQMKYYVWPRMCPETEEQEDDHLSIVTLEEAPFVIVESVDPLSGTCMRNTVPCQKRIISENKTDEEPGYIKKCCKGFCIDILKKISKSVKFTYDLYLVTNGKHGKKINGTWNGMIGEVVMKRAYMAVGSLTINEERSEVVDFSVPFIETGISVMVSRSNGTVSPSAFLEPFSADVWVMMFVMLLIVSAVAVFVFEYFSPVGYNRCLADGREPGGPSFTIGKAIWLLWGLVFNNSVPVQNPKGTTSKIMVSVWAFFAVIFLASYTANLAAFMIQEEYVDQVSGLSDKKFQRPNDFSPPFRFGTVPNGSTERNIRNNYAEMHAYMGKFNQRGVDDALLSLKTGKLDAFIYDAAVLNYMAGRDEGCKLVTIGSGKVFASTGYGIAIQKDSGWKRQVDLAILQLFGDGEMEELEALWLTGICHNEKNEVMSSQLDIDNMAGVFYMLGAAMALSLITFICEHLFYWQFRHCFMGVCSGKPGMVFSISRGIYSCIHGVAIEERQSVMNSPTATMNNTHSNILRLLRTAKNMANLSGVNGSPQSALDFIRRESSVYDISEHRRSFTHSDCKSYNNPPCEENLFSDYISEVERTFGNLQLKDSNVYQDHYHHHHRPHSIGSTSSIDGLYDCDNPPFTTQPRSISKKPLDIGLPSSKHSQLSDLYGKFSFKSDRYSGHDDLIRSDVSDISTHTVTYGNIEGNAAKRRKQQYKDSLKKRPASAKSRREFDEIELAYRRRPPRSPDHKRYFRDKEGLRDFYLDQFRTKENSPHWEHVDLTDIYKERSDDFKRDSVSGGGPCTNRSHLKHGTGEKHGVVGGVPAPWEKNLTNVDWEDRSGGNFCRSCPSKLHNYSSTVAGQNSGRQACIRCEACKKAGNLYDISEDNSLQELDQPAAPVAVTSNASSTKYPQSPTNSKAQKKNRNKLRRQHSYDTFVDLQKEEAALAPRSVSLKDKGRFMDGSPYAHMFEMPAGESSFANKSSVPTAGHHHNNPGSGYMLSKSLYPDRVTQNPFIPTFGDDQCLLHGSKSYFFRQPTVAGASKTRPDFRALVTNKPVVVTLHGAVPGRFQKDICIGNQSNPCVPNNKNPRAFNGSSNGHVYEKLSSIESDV
Sequence of GluN1a wt/ GluN2B F114A (Q00960 27-1482 F114A, other chains not shown): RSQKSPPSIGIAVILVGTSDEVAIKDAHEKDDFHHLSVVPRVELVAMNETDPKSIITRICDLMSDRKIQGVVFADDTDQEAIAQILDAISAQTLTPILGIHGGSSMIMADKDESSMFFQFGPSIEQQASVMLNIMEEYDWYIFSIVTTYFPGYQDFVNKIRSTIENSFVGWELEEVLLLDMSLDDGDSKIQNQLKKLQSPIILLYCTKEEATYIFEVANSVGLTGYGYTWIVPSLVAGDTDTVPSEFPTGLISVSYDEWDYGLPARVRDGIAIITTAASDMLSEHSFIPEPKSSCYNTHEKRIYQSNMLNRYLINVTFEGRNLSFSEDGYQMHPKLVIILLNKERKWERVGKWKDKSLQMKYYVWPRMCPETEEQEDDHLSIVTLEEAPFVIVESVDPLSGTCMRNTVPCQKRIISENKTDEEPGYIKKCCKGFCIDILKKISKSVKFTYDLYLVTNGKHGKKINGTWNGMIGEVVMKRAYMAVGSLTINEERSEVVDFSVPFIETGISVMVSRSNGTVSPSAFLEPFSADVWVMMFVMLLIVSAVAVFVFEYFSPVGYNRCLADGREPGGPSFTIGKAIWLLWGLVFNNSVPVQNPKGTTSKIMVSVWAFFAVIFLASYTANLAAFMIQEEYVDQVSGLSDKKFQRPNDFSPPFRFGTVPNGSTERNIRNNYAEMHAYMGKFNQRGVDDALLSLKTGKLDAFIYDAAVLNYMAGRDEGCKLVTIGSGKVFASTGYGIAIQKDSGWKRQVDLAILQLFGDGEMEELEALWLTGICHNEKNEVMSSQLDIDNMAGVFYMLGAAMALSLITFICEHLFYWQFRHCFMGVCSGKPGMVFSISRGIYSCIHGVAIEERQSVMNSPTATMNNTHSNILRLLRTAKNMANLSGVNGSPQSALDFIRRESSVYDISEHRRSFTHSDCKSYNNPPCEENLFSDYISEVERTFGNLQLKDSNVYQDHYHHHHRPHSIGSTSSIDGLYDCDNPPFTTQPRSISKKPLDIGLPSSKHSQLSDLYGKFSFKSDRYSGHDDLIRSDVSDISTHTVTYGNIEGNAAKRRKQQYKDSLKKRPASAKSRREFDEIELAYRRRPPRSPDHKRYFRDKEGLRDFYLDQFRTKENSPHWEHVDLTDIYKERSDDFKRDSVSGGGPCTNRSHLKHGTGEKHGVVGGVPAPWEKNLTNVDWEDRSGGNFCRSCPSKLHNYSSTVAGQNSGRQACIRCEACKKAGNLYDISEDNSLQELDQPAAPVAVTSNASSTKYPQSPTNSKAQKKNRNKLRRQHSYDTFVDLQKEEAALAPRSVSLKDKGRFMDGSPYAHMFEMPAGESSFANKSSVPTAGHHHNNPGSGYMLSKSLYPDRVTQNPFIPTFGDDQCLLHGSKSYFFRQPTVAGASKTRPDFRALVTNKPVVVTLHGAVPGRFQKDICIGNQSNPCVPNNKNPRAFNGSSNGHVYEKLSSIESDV
Sequence of GluN1b wt/ GluN2B F176A (Q00960 27-1482 F176A, other chains not shown): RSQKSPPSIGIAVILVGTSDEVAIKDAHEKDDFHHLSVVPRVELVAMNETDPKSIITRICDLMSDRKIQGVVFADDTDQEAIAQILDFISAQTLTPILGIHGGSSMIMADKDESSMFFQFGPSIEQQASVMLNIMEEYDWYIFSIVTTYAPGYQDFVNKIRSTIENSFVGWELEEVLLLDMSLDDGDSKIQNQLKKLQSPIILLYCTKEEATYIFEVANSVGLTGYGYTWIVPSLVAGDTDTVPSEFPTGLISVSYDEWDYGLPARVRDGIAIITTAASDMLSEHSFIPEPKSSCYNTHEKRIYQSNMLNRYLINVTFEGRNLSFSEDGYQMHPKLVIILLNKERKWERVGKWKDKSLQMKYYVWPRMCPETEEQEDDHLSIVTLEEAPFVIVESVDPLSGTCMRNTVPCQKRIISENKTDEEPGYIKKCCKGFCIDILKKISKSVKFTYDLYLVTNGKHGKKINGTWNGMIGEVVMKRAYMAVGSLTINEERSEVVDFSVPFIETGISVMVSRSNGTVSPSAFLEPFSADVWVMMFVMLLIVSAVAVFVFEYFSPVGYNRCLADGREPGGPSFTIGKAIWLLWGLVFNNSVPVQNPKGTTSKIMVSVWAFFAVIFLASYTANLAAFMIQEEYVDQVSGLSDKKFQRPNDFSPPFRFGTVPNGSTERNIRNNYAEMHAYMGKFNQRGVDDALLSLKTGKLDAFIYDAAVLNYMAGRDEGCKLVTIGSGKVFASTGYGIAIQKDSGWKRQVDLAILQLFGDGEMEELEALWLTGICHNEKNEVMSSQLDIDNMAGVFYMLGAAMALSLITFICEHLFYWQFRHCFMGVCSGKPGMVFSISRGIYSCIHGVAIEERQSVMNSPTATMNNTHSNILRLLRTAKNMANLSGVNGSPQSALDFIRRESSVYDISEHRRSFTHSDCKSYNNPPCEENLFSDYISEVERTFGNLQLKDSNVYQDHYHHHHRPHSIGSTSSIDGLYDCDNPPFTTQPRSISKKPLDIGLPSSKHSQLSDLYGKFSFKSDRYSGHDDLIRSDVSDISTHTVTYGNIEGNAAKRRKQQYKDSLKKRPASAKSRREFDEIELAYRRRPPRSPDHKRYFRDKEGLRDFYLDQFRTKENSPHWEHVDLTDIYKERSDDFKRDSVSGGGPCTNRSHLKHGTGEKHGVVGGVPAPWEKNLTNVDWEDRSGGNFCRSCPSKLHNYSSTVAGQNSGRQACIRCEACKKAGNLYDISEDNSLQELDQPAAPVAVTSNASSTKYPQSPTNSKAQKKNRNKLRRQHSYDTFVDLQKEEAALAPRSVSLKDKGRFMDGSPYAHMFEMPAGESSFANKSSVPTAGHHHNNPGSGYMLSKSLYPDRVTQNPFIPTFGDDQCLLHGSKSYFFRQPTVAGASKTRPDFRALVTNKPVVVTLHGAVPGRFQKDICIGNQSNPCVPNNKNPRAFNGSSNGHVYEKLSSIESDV

**Q.** Which “blood–brain barrier permeability” value (GluN2B subunits) does the source give for `Oc1ccc2c(c1)CCN(CCCCc1ccccc1[18F])CC2O` (racemic) [^18F-OF-NB1] here?
**A.** high

**Q.** What about the cerebellar accumulation (GluN2B subunits; ex vivo biodistribution assays) of the same molecule?
**A.** high cerebellar accumulation

**Q.** What does the source list for `Oc1ccc2c(c1)CCN(CCCCc1ccccc1[18F])C[C@@H]2O` [(R)-^18F-OF-NB1]?
**A.** affinity in vivo relative to the S-enantiomer (GluN2B): four- to five-fold higher; cingulate cortex accumulation (GluN2B): high cingulate cortex accumulation; uptake (GluN2B): high uptake; washout kinetics (GluN2B): slow washout kinetics

**Q.** Which “inhibition (%)” value (GluN1a wt/ GluN2B F114A; [1]) does the source give for `Oc1ccc2c(c1)CCN(CCCCc1ccccc1F)C[C@@H]2O` [OF-NB1 R] here?
**A.** 0.07918% and 0.5179% and 0.211%

**Q.** What about the “inhibition (%)” value (GluN1a wt/ GluN2B F114A; [2]) of the same molecule?
**A.** 29.9386% and 5.971% and 22.998% and 16.9662%

**Q.** And the “inhibition (%)” value (GluN1a wt/ GluN2B F114A; [3])?
**A.** 58.532% and 61.9095% and 61.1489% and 64.1685%

**Q.** And the “inhibition (%)” value (GluN1a wt/ GluN2B F114A; [4])?
**A.** 87.8657% and 75.6136% and 78.22% and 87.6368%

**Q.** What about the “inhibition (%)” value (GluN1a wt/ GluN2B E236A; compound concentration 0.001 μM, 0.001 µM) of the same molecule?
**A.** 0.5349% and -0.3615% and 0.07864% and -0.02364% and -0.08675%

**Q.** And the “inhibition (%)” value (GluN1a wt/ GluN2B E236A; compound concentration 0.01 μM, 0.01 µM)?
**A.** 2.174% and 5.182% and 1.1167% and -0.03546% and -0.1952%

**Q.** What about the “inhibition (%)” value (GluN1a wt/ GluN2B E236A; [1]) of the same molecule?
**A.** 22.83% and 11.3477% and 24.7562% and 0% and 0.08675%

**Q.** What about the “inhibition (%)” value (GluN1a wt/ GluN2B E236A; [2]) of the same molecule?
**A.** 62.3641% and 56.7584% and 57.7225% and 68.2307% and 52.0278%

**Q.** And the “inhibition (%)” value (GluN1a wt/ GluN2B E236A; [3])?
**A.** 74.0293% and 68.3069% and 74.5203% and 84.919% and 71.8716%

**Q.** What about the “inhibition (%)” value (GluN1a wt/ GluN2B E236A; [4]) of the same molecule?
**A.** 82.623% and 76.0795% and 83.6584% and 89.363% and 81.8261%

**Q.** With `CC(C(O)c1ccc(O)cc1)N1CCC(Cc2ccccc2)CC1` (stereo not shown) [[^3H]ifenprodil, ifenprodil] as the molecule, how does the “specific binding (cpm)” value (GluN1a wt/ GluN2B F176A) read?
**A.** 4.5 cpm and 6.5 cpm

**Q.** What about the “specific binding (cpm)” value (GluN1a wt/ GluN2B F194A) of the same molecule?
**A.** 3.5 cpm and 2.5 cpm and -1.5 cpm

**Q.** And the “specific binding (cpm)” value (GluN1a wt/ GluN2B wt)?
**A.** 25.5 cpm and 9.5 cpm and 4.5 cpm

**Q.** And the “specific binding (cpm)” value (GluN1b wt/ GluN2B F176A)?
**A.** -1.5 cpm and -2.5 cpm and 0.5 cpm

**Q.** And the “specific binding (cpm)” value (GluN1b wt/ GluN2B F194A)?
**A.** -0.5 cpm and -1.5 cpm

**Q.** What about the “specific binding (cpm)” value (GluN1b wt/ GluN2B wt) of the same molecule?
**A.** 4.5 cpm and 5.5 cpm and 11.5 cpm
